{
  "source": "PubChem BioAssay AID2060912",
  "about": "(Molecular Pharmacology Branch, DTP, NCI, 2025)",
  "test_system": "HUVEC/MSC spheroids viability",
  "test": "Human HUVEC/MSC cell line growth inhibition [KRAS2];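 as to viability, T/C: percent of DMSO vehicle control luminescence so 100% = untreated viability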",
  "settings": "for pIC50: curve of first compound; for viability, T/C: stronger effect = lower value",
  "from_the_text": "Multicellular complex tumor spheroid response to RAS pathway inhibitors in combination with a targeted agents in patient-derived cell lines with oncogenic KRAS variants from multiple cancer types\nA high-throughput screen of multi-cell type tumor spheroids was designed to identify active combinations of targeted small molecules and KRAS pathway inhibitors. Complex spheroids include a stromal component modeled by human endothelial cells (HUVEC) and fibroblasts modeled by human mesenchymal stem cells (MSCs). The concentration ranges selected for each drug and investigational agent were based upon clinically achievable concentrations if the clinical Cmax of the agent was known. * [This particular assayID is a followup dataset requested by reviewers of the manuscript. It is a test of the HUVEC and MSC without the tumor cells, and was conducted using different drug plates and a different plate layout.]\nCompounds. The drugs and investigational agents: BI-3406 (NSC825286), BAY-293 (NSC824723), batoprotafib (TNO155; NSC825523), sotorasib (AMG 510; NSC818433), MRTX1257 (NSC819558), elimusertib (BAY 1895344; NSC800525), molibresib (GSK525762; NSC774829), temuterkib (LY3214996; NSC803410), venetoclax (NSC766270), alisertib (NSC759677), olaparib (NSC753686), talazoparib (NSC767125), erdafitinib (NSC781556), ipatasertib (NSC767898), cabozantinib (NSC761068), nintedanib (NSC756659), abemaciclib (NSC768073), docetaxel (NSC628503), trametinib (NSC758246), and sapanisertib (NSC764658) were obtained from the National Cancer Institute (NCI) Developmental Therapeutics Program Chemical Repository. The FDA-approved anticancer drug set is available from the Developmental Therapeutics Program. […] The stock solutions were prepared in dimethyl sulfoxide (DMSO, Sigma-Aldrich, St. Louis, MO, cat. D2650) at 800-fold the tested concentration and stored at -70 degrees C prior to their use. All drugs and investigational agents were tested over a range starting from a high concentration at or near the clinical Cmax and decreasing in half-log increments. If the clinical Cmax for an agent had not been determined, the highest concentration tested was 10 microM.\nCell Culture. All cells were maintained in an incubator at 37 degrees C and 5% CO2 with 95% humidity. The PDC lines were cultured according to standard operating procedures established by the NCI PDMR (https://pdmr.cancer.gov/sops/default.htm). Briefly, all PDCs were thawed and cultured in Matrigel-coated flasks prepared with a working solution of 1X Ham's F-12 nutrient mix, without supplementation (Invitrogen, Waltham, MA, cat. 11765054), 100 U/mL penicillin-streptomycin (Invitrogen, cat. 15140122), and 2.5% Matrigel (Corning Inc., Corning, NY, cat. 354248) for the first three passages. All PDCs were cultured in complete DMEM/F-12 media containing advanced DMEM/F-12 (Invitrogen, cat. 12634028), 4.9% defined fetal bovine serum, heat inactivated (HyClone Laboratories Inc., Logan, UT, cat. SH30070.03HI), 389 ng/mL hydrocortisone (Sigma-Aldrich, cat. H4001), 9.7 ng/mL human EGF recombinant protein (Invitrogen, cat. PHG0313), 23.4 microg/mL adenine (Sigma-Aldrich, cat. A2786), 97.3 U/mL penicillin-streptomycin (Invitrogen, cat. 15140122), 1.9 mM L-glutamine (Invitrogen, cat. 25030081), and 9.7 microM Y-27632 dihydrochloride (Tocris Bioscience, Bristol, United Kingdom, cat. 1254). The PDCs were cultured in complete DMEM/F12 media without 9.7 microM Y-27632 dihydrochloride for at least two passages prior to the screen. The established cell line HOP-62 was cultured in RPMI 1640 medium, HEPES (Invitrogen, cat. 22400105) with 10% defined fetal bovine serum (HyClone Laboratories Inc., cat. SH30070.03) and 2 mM L-glutamine (Invitrogen, cat. 25030081). The pooled donor HUVEC were cultured in endothelial cell growth medium 2 (PromoCell, Heidelberg, Germany, cat. C-22011) and the hMSC were cultured in mesenchymal stem cell growth medium 2 (PromoCell, cat. C-28009). […]",
  "note": "pIC50: −log10 of the molar value.",
  "data": [
    {"molecule": "CCNC(=O)CC1N=C(c2ccc(Cl)cc2)c2cc(OC)ccc2-n2c(C)nnc21", "note": "(configuration not stated) + CC1OCC2(CCN(c3cnc(Sc4ccnc(N)c4Cl)c(N)n3)CC2)C1N", "values": [
      {"measurement": "pIC50", "setting": "second compound 0.0316 µM", "value": "< 5.00"},
      {"measurement": "pIC50", "setting": "second compound 0.1 µM", "value": "< 5.00"},
      {"measurement": "pIC50", "setting": "second compound 0.316 µM", "value": "< 5.00"},
      {"measurement": "pIC50", "setting": "second compound 1 µM", "value": "< 5.00"},
      {"measurement": "pIC50", "setting": "second compound 3.16 µM", "value": "< 5.00"},
      {"measurement": "pIC50", "setting": "second compound 10 µM", "value": 5.52},
      {"measurement": "viability, T/C", "setting": "second compound 0.0316 µM, first compound 0.0316 µM", "value": 79.7, "unit": "%"},
      {"measurement": "viability, T/C", "setting": "second compound 0.0316 µM, first compound 0.1 µM", "value": 102, "unit": "%"},
      {"measurement": "viability, T/C", "setting": "second compound 0.0316 µM, first compound 0.316 µM", "value": 99.2, "unit": "%"},
      {"measurement": "viability, T/C", "setting": "second compound 0.0316 µM, first compound 1 µM", "value": 87.5, "unit": "%"},
      {"measurement": "viability, T/C", "setting": "second compound 0.0316 µM, first compound 3.16 µM", "value": 110, "unit": "%"},
      {"measurement": "viability, T/C", "setting": "second compound 0.0316 µM, first compound 10 µM", "value": 89.4, "unit": "%"},
      {"measurement": "viability, T/C", "setting": "second compound 0.1 µM, first compound 0.0316 µM", "value": 107, "unit": "%"},
      {"measurement": "viability, T/C", "setting": "second compound 0.1 µM, first compound 0.1 µM", "value": 86.2, "unit": "%"},
      {"measurement": "viability, T/C", "setting": "second compound 0.1 µM, first compound 0.316 µM", "value": 102, "unit": "%"},
      {"measurement": "viability, T/C", "setting": "second compound 0.1 µM, first compound 1 µM", "value": 91.8, "unit": "%"},
      {"measurement": "viability, T/C", "setting": "second compound 0.1 µM, first compound 3.16 µM", "value": 99, "unit": "%"},
      {"measurement": "viability, T/C", "setting": "second compound 0.1 µM, first compound 10 µM", "value": 95.3, "unit": "%"},
      {"measurement": "viability, T/C", "setting": "second compound 0.316 µM, first compound 0.0316 µM", "value": 90.6, "unit": "%"},
      {"measurement": "viability, T/C", "setting": "second compound 0.316 µM, first compound 0.1 µM", "value": 88.6, "unit": "%"},
      {"measurement": "viability, T/C", "setting": "second compound 0.316 µM, first compound 0.316 µM", "value": 87.1, "unit": "%"},
      {"measurement": "viability, T/C", "setting": "second compound 0.316 µM, first compound 1 µM", "value": 88.2, "unit": "%"},
      {"measurement": "viability, T/C", "setting": "second compound 0.316 µM, first compound 3.16 µM", "value": 88, "unit": "%"},
      {"measurement": "viability, T/C", "setting": "second compound 0.316 µM, first compound 10 µM", "value": 84.1, "unit": "%"},
      {"measurement": "viability, T/C", "setting": "second compound 1 µM, first compound 0.0316 µM", "value": 79.3, "unit": "%"},
      {"measurement": "viability, T/C", "setting": "second compound 1 µM, first compound 0.1 µM", "value": 97.8, "unit": "%"},
      {"measurement": "viability, T/C", "setting": "second compound 1 µM, first compound 0.316 µM", "value": 76.6, "unit": "%"},
      {"measurement": "viability, T/C", "setting": "second compound 1 µM, first compound 1 µM", "value": 68.4, "unit": "%"},
      {"measurement": "viability, T/C", "setting": "second compound 1 µM, first compound 3.16 µM", "value": 77.2, "unit": "%"},
      {"measurement": "viability, T/C", "setting": "second compound 1 µM, first compound 10 µM", "value": 58.8, "unit": "%"},
      {"measurement": "viability, T/C", "setting": "second compound 3.16 µM, first compound 0.0316 µM", "value": 83.5, "unit": "%"},
      {"measurement": "viability, T/C", "setting": "second compound 3.16 µM, first compound 0.1 µM", "value": 103, "unit": "%"},
      {"measurement": "viability, T/C", "setting": "second compound 3.16 µM, first compound 0.316 µM", "value": 81.4, "unit": "%"},
      {"measurement": "viability, T/C", "setting": "second compound 3.16 µM, first compound 1 µM", "value": 73.8, "unit": "%"},
      {"measurement": "viability, T/C", "setting": "second compound 3.16 µM, first compound 3.16 µM", "value": 66, "unit": "%"},
      {"measurement": "viability, T/C", "setting": "second compound 3.16 µM, first compound 10 µM", "value": 51.3, "unit": "%"},
      {"measurement": "viability, T/C", "setting": "second compound 10 µM, first compound 0.0316 µM", "value": 66, "unit": "%"},
      {"measurement": "viability, T/C", "setting": "second compound 10 µM, first compound 0.1 µM", "value": 64.5, "unit": "%"},
      {"measurement": "viability, T/C", "setting": "second compound 10 µM, first compound 0.316 µM", "value": 77.8, "unit": "%"},
      {"measurement": "viability, T/C", "setting": "second compound 10 µM, first compound 1 µM", "value": 64, "unit": "%"},
      {"measurement": "viability, T/C", "setting": "second compound 10 µM, first compound 3.16 µM", "value": 49.6, "unit": "%"},
      {"measurement": "viability, T/C", "setting": "second compound 10 µM, first compound 10 µM", "value": 30, "unit": "%"}
    ]}
  ]
}
